Data taken from ChEMBL document CHEMBL1201862, “PubChem BioAssay data set” (2004).
Active and inactive are the calls of the source.

Assays:
[1] = HepG2 cell cytotoxicity, dose response, cytotoxicity control for Shn3 inhibitor project, CellTiter-Glo, cherry-picked (AID 624134); format: functional, cell-based
[2] = control 3'UTR Renilla luciferase suppression, dose response, counter-screen for Shn3 inhibitor project, cell-based, Clone20-Shn3RL, cherry-picked (AID 624133); format: functional
INS1 = assay: beta cell apoptosis inhibitors, cytokine rescue, dose response, luminescence, retest (AID 449756); format: functional, cell-based; settings: Rattus norvegicus;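 note: cell death triggered by IL-1 beta plus TNF-alpha plus IFN-gamma mixture; protective hits raise ATP signal compared with cytokine alone wells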
Protein Wnt-3a = Protein Wnt-3a (Mus musculus, UniProt P27467); assay: Wnt3a-driven reporter signaling inhibition, dose response, selectivity assay for Gli-SUFU antagonist project, Wnt-LIGHT cells, luminescence (AID 651570); format: functional; settings: read-out: IC50_Mean;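 note: Wnt-LIGHT reporter cells stimulated with conditioned medium from Wnt3a-producing cells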
Sequence of Protein Wnt-3a (P27467 whole entry): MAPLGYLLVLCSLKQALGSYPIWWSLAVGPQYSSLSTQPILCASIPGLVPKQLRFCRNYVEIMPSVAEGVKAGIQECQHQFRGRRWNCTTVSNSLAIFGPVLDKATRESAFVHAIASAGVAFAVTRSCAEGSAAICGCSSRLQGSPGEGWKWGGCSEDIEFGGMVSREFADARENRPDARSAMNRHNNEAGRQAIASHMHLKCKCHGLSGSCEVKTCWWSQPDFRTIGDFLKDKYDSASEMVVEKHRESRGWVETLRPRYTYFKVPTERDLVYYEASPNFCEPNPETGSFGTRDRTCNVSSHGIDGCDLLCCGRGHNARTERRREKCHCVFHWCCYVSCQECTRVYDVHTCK

[3] = Shn3 3'UTR reporter inhibitors, dose response, cell-based, Clone20 osteoblasts, firefly luciferase, cherry-picked (AID 624132); format: functional;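 note: firefly luciferase luminescence from reporter carrying the Shn3 3'UTR in osteoblasts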
[4] = target: T1, COUP transcription factor 2 (Homo sapiens, UniProt P24468); assay: Luminescence-based cell-based high throughput dose response assay to identify inhibitors of COUP-TFII (NR2F2).; format: functional;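 note: HEK293 cells transiently cotransfected with COUP-TFII expression vector and reporter; luciferase reporter luminescence driven by COUP-TFII from the pX2-168 reporter plasmid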
T1 sequence (P24468 whole entry): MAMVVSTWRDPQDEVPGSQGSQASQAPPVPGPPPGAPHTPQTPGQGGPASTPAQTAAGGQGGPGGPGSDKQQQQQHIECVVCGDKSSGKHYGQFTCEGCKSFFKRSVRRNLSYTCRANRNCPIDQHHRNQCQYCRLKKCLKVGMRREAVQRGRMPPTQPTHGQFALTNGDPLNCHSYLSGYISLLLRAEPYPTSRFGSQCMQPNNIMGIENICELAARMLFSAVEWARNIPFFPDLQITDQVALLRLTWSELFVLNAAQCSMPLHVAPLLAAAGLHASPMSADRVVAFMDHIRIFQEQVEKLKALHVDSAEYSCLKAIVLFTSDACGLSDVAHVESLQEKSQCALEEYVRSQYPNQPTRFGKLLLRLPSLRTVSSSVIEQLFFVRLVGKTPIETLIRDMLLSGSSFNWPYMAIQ

Cytochrome P450 3A4 = Cytochrome P450 3A4 (Homo sapiens, UniProt P08684); settings: Potency;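 note: confirmatory qHTS run detecting inhibitors and substrates of CYP3A4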
Sequence of Cytochrome P450 3A4 (P08684 whole entry): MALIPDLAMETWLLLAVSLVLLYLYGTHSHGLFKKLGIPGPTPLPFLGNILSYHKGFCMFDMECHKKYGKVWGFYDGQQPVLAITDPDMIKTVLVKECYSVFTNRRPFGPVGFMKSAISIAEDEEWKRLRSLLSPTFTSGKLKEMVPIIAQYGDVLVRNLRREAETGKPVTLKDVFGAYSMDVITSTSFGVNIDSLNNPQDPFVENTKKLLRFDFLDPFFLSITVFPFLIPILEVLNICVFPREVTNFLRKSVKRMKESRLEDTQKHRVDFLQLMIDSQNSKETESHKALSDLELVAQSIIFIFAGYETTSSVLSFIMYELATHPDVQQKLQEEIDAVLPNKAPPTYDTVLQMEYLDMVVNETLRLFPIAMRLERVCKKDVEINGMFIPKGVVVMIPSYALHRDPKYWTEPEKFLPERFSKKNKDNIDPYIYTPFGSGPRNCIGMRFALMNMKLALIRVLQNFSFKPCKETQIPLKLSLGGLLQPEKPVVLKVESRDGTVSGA

Leucine aminopeptidase = target: T2, Leucine aminopeptidase (Plasmodium falciparum 3D7, UniProt Q8IL11); assay: P. falciparum M17LAP inhibitors, primary screen, biochemical, fluorogenic H-Leu-NHMec substrate, 1536-well (AID 1619); format: functional
T2 sequence (Q8IL11 whole entry): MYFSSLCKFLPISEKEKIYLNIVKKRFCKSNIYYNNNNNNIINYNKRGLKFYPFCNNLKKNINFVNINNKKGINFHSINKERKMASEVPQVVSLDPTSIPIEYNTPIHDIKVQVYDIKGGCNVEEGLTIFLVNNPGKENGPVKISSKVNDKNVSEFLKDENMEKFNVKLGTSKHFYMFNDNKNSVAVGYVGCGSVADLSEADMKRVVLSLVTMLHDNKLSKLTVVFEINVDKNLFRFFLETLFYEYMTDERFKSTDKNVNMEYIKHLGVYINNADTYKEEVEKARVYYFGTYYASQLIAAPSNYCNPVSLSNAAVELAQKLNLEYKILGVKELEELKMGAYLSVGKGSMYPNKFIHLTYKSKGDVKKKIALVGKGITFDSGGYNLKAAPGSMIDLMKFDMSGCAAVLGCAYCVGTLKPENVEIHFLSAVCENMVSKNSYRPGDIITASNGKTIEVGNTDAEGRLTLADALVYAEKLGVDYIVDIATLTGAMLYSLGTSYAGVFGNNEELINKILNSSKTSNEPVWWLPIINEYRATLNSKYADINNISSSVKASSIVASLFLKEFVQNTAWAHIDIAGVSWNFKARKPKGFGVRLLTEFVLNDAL

[5] = target: T3, Replicative DNA helicase DnaB (Mycobacterium tuberculosis, UniProt P9WMR3); assay: DnaB intein splicing inhibitors, dose response, biochemical, cell-free fluorescence (AID 449749); format: functional
T3 sequence (P9WMR3 whole entry): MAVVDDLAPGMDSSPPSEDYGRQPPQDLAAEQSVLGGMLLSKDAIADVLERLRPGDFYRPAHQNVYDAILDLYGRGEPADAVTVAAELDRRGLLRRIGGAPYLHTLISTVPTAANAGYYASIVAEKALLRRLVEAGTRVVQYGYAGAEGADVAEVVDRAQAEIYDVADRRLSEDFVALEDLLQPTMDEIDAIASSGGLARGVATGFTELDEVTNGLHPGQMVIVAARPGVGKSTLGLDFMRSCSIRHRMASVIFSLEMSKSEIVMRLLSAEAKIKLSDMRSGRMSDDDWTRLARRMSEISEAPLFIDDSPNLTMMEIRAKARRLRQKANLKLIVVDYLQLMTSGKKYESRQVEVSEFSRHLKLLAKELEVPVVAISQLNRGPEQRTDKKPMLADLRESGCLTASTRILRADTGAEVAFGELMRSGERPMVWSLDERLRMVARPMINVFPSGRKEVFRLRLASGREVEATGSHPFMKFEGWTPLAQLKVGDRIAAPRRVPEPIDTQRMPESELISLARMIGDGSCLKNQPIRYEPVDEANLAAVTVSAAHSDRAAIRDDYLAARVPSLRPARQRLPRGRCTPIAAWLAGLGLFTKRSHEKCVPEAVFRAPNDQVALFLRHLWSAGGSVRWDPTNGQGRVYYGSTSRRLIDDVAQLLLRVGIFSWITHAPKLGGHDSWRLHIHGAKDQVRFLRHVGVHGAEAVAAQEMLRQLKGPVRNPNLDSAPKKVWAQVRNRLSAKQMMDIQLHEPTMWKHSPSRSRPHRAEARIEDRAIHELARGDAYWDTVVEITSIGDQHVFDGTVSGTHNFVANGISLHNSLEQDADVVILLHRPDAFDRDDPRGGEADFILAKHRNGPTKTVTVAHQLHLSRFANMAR

[6] = inhibitors of Vif binding to APOBEC3G peptide, primary screen, biochemical, TR-FRET, GST-Vif 1-94, biotin-A3G peptide, dose response retest (AID 1117319); format: functional;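 note: TR-FRET signal of purified GST-Vif binding a biotinylated A3G peptide; inhibitors lower the FRET signal by blocking Vif and A3G binding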
Protein RecA = target: T4, Protein RecA (Mycobacterium tuberculosis, UniProt P9WHJ3); assay: Fluorescence Cell-Free Homogeneous Dose Retest to Identify Inhibitors of RecA-Intein Splicing Activity. [Related pubchem assays (depositor defined):AID2097, AID2223, AID489010, AID492950]; format: functional
T4 sequence (P9WHJ3 whole entry): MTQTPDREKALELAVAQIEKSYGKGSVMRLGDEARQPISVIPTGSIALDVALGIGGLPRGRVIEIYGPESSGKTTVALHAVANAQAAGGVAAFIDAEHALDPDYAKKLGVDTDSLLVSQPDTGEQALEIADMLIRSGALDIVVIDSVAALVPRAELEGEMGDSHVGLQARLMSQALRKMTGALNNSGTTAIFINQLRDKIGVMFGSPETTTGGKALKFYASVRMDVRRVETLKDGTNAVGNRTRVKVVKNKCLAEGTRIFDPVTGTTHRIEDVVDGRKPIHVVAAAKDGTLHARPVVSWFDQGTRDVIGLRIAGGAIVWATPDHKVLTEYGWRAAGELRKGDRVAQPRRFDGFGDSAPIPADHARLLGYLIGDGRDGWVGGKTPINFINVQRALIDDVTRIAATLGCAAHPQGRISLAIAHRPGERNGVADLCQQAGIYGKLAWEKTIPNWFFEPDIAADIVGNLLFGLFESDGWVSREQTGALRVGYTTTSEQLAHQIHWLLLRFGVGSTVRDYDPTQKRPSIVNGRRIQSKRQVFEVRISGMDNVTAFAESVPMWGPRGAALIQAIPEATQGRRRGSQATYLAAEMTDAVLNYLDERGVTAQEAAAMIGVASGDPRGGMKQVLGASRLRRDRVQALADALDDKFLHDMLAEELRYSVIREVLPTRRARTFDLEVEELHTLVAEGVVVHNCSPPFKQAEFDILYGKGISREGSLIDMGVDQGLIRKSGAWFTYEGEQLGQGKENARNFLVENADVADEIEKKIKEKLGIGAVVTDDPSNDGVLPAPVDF

[7] = cytotoxicity in HEK-293T cells, dose response, cytotoxicity control for BCR NF-kB inhibitor project, luminescence, B-cell screen hits (AID 489021); format: functional, cell-based;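 note: HEK-293T cells carrying an NF-kB luciferase reporter; cells exposed to compound for about 14 hours before viability readout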
[8] = target: T5, Ubiquitin-conjugating enzyme E2 N (Homo sapiens, UniProt P61088); format: functional;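 note: Dose-response confirmation in a TR-FRET assay detecting UBC13-driven polyubiquitin chain formation, inhibition measured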
T5 sequence (P61088 whole entry): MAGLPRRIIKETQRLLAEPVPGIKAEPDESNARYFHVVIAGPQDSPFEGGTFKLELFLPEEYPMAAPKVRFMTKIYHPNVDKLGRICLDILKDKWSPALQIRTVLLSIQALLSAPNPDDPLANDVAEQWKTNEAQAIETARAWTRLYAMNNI

Paired box protein Pax-8 = Paired box protein Pax-8 (Homo sapiens, UniProt Q06710); assay: inhibitors of PAX8-driven TPO luciferase reporter, dose response, RMG-I cells, cherry-pick (AID 687027); format: functional, cell-based;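 note: luciferase reporter driven by Pax8 target thyroperoxidase promoter measured by SteadyGlo luminescence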
Sequence of Paired box protein Pax-8 (Q06710 whole entry): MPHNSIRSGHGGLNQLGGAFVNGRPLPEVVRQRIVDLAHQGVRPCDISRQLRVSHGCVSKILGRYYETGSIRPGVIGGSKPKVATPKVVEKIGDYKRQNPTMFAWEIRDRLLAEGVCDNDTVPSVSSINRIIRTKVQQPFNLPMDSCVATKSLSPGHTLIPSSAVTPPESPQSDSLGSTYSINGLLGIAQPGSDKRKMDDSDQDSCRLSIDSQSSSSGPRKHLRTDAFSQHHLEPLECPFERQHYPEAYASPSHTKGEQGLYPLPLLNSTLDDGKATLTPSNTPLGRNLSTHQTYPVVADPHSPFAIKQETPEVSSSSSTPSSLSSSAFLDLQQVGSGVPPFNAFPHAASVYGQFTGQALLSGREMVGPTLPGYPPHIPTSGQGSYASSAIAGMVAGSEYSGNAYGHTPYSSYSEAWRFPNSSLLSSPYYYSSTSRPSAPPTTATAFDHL

[9] = NIH:OVCAR-3 ovarian cancer cell cytotoxicity, dose response, PAX8 inhibitor project, plate reader, dry powder samples (AID 743044); format: functional, cell-based
[10] = cytotoxicity in OVCAR8 ovarian cancer cells, dose response, PAX8 project, cell-based, plate reader, dry powder samples (AID 743197); format: functional; settings: OVCAR-8
[11] = inhibitors of PGC1a acetylation in cells, dose response, cell-based, cherry-picked samples (AID 720514); format: functional;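 note: potency may reflect raised or lowered acetylation signal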
[12] = HepG2 cell cytotoxicity, dose response, cytotoxicity control, cherry-picked samples (AID 1159577); format: functional, cell-based
[13] = P. falciparum Dd2 growth inhibitors, dose response, SYBR Green, cherry-picked samples (AID 1159567); format: functional, cell-based

## CCc1ccc(CN(C)C(=O)c2cc(COc3cccc4cnccc34)on2)cc1
[1]
  AC50: 3.23 µM (active)
[2]
  AC50: 13.5 µM (active)
INS1
  AC50: 3.27 µM (active)
Protein Wnt-3a
  IC50: 4.25 µM (active)
[3]
  AC50: 1.92 µM (active)
[4]
  IC50: 7.5 µM (active)

## FC(F)(F)c1ccc(C2[C@H]3CN(Cc4ccc(-c5ccccc5)cc4)[C@H](c4ccccc4)C34CC2(c2cccnc2)C4)cc1 (some centres not stated)
Cytochrome P450 3A4
  AC50: 15.8 µM (inconclusive)

## Cc1cc(-c2[nH]nc3c2C(c2cccc(O)c2)C(C#N)=C(N)O3)c(C)s1 (configuration not stated)
Leucine aminopeptidase
  IC50: 52.8 µM (active)
[5]
  AC50: 4.58 µM (active)
[6]
  IC50: > 100 µM (active)
Protein RecA
  EC50: 2.65 µM (active)

## CCc1cccc(NC(=O)c2ccc(CNc3c(N4CCCC4)c(=O)c3=O)cc2)c1
[7]
  IC50: > 80 µM (inactive)

## CCOc1cc(/C=C(/C#N)c2ccc(F)cc2)ccc1OCc1ccc(C(=O)O)o1
Leucine aminopeptidase
  IC50: 23.6 µM (active)

## CCC(=O)NC(C)c1cc(Cl)c2ccccc2c1O (configuration not stated)
[8]
  IC50: > 20 µM (inactive)

## COc1ccnc2c1c(=O)n(Cc1ccc(F)cc1)c(=O)n2C
[8]
  IC50: > 20 µM (inactive)

## O=C(Nc1ccc(C(F)(F)F)cc1)Nc1ccc2c(c1)[C@H]1C[C@@H](CC(=O)N3CCc4ccccc4C3)O[C@H](CO)[C@H]1O2
Paired box protein Pax-8
  AC50: 4.1 µM (active)
[9]
  AC50: 23.6 µM (active)
[10]
  AC50: 54 µM (active)

## Cc1sc2ncnc(N)c2c1C
[8]
  IC50: > 20 µM (inactive)

## OC[C@H]1[C@@H](c2ccc(C#CC3CCCC3)cc2)[C@@H]2CN(CCC(F)(F)F)CCCCN12
[11]
  AC50: 11 µM (active)
[12]
  AC50: 10.5 µM (active)
[13]
  AC50: 0.346 µM (active)
